Test results reported in US8846675B2, “N-linked heterocyclic receptor agonists for the treatment of diabetes and metabolic disorders” (Cymabay Therapeutics, Inc., priority 2007, dated 2014).

biological target: T1, IC-GPCR2 (Homo sapiens, UniProt Q8TDV5); assay: Stimulation of cAMP in CHO cell line stably expressing IC-GPCR2 (HTRF cAMP dynamic kit); format: cell-based; conditions: 3 μM compound; relative to maximal activity of 5-Ethyl-2-{4-[4-(4-tetrazol-1-yl-phenoxymethyl)-thiazol-2-yl]-piperidin-1-yl}-pyrimidine (=100%); IC-GPCR2 stably expressing CHO cells, 30 minutes
T1 construct: expressed in transfected cells
T1 sequence (Q8TDV5 1-335 S309L): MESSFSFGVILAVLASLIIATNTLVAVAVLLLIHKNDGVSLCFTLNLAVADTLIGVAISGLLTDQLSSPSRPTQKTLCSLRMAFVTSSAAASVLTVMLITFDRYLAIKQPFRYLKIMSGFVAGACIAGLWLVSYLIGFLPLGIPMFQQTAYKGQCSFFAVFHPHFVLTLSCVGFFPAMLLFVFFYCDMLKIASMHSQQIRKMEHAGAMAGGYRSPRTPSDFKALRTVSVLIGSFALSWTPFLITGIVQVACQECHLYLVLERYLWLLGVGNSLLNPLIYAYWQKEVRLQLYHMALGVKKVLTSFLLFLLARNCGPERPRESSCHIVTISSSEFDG
Procedure: This assay was developed using a stable cell line expressing IC-GPCR-2, generated as follows. IC-GPCR2 (Seq. ID No. 1) was cloned into Gateway pDEST 40vector (Invitrogen), using the Gateway cloning system (invitrogen) according to the manufacturers instructions. A stable cell line was generated by transfecting a 10 cm plate of CHO cells (source) with 8 ug of this construct using Transit-CHO transfection kit (Mirus). CHO cells were plated the day prior to transfection at a density of 3,000,000 cells/plate. Clones were selected using the antibiotic G418 at 500 ug/ml. 23 clones were picked and assayed for the expression of the receptor by measuring changes in intracellular cAMP levels in response to an IC-GPCR2 agonist (Arena 51).
To measure cAMP activity in response to IC-GPCR2 agonist, the clones were plated in 96 well plates at 17500 cells per well. On the day after plating, cells were incubated with the IC-CPCR2 agonist at […] for 30 minutes in Ham's F12 Media (Gibco) with 0.04% DMSO. cAMP was measured using the cAMP dynamic kit from C is Bio (Bedford, Mass.) according to the manufacturers instructions. Briefly, cells were lysed, and cAMP levels determined by competitive immunoassay using D2 labeled cAMP, and europium cryptate tagged anti cAMP antibody. When in close proximity, the D2 and europium cryptate undergo fluorescence resonance energy transfer (FRET), which is measured as a fluorescence ratio (665 nm/620 nm). Unlabelled cAMP in the cell lysatc competed with the D2 labeled cAMP for the europium crypate labeled antibody. The resulting decrease in FRET signal corresponded to intracellular cAMP levels. Fluorescence was read on a BMG Labtech PHERAstar, software version 1.50.
The clone with the greatest response to IC-GPCR2 agonist was selected for the screening assay.
Compounds were dissolved in 100% DMSO to a concentration of […] to provide stock solutions. To determine activity against IC-GPCR2, compounds were incubated with IC-GPCR2 stably expressing cells (described above), at 6-8 concentrations ranging from 0.00003 to 10 micromolar, in 96 well plates, in 50 ul of Hams F12 media for 30 minutes. Cells were plated at 17500 cells per well 1 day before running the assay. All compounds were also screened against the parental CHO cells. cAMP was measured using the cAMP dynamic kit from Cis Bio (Bedford, Mass.), according to the manufacturer's instructions. Briefly, cells were lysed and cAMP levels determined by competitive immunoassay using D2 labeled cAMP, and europium cryptate tagged anti cAMP antibody. When in close proximity, the D2 and europium cryptate undergo fluorescence resonance energy transfer (FRET), which is measured as a fluorescence ratio (665 nm/620 nm). Unlabelled cAMP in the cell lysate competed with the D2 labeled cAMP for the europium crypate labeled antibody. The resulting decrease in FRET signal corresponded to intracellular cAMP levels
To determine percent activity for a tested compound, the FRET signal value obtained at a particular concentration are compared to the Maximal FRET signal value obtained for 5-Ethyl-2-{4-[4-(4-tetrazol-1-yl-phenoxymethyl)-thiazol-2-yl]-piperidin-1-yl}-pyrimidine. The maximal activity of 5-Ethyl-2-{4-[4-(4-tetrazol-1-yl-phenoxymethyl)-thiazol-2-yl]-piperidin-1-yl}-pyrimidine is designated as 100% activity. Typically, the concentration of 5-Ethyl-2-{4-[4-(4-tetrazol-1-yl-phenoxymethyl)-thiazol-2-yl]-piperidin-1-yl}-pyrimidine in the assay was approximately 0.1 μM. The synthesis of 5-Ethyl-2-{4-[4-(4-tetrazol-1-yl-phenoxymethyl)-thiazol-2-yl]-piperidin-1-yl}-pyrimidine is disclosed in co-owned pending U.S. patent application Ser. No. 11/964,461, herein incorporated by reference. Activities of compounds that were tested are shown in Table 1 below and are expressed as % activity at 3 μM compound compared to the maximal activity of 5-Ethyl-2-{4-[4-(4-tetrazol-1-yl-phenoxymethyl)-thiazol-2-yl]-piperidin-1-yl}-pyrimidine at 3 μM.

Row | SMILES | % activity at 3 μM
1 | Fc1cc(-n2cnnn2)ccc1OCc1cnn([C@H]2CCN(c3ncc(Cl)cn3)C[C@@H]2F)n1 (racemic) [Example 33, 5-Chloro-2-((trans)-3-fluoro-4-(4-((2-fluoro-4-(1H-tetrazol-1-yl)phenoxy)methyl)-2H-1,2,3-triazol-2-yl)piperidin-1-yl)pyrimidine] | 88.32%
2 | CC(C)(C)OC(=O)N1CC[C@@H](n2ncc(COc3ccc(-n4cnnn4)cc3F)n2)[C@H](F)C1 (relative stereo) [Example 49, (trans)-tert-Butyl 3-fluoro-4-(4-((2-fluoro-4-(1H-tetrazol-1-yl)phenoxy)methyl)-2H-1,2,3-triazol-2-yl)piperidine-1-carboxylate] | 78.48%
3 | COC(=O)[C@H]1C[C@H](n2ncc(COc3ccc(-n4cnnn4)nc3)n2)CCN1C(=O)OC(C)(C)C (relative stereo) [Example 59] | 33.25%
4 | CC(C)(C)OC(=O)N1CCC(n2ncc(COc3ccc(-n4cnnn4)cc3)n2)CC1 [Example 3, 4-[4-(4-Tetrazol-1-yl-phenoxymethyl)-[1,2,3]triazol-2-yl]-piperidine-1-carboxylic acid tert-butyl ester] | 79.02%
5 | CC(C)(C)OC(=O)N1CCC(n2ncc(COc3ccc(S(C)(=O)=O)cc3F)n2)CC1 [Example 4, 4-[4-(2-Fluoro-4-methanesulfonyl-phenoxymethyl)-[1,2,3]triazol-2-yl]-piperidine-1-carboxylic acid tert-butyl ester] | 79.18%
6 | CC(C)(C)OC(=O)N1CCC(n2ccc(COc3ccc(-n4cnnn4)cc3F)n2)CC1 [Example 6, 4-[3-(2-Fluoro-4-tetrazol-1-yl-phenoxymethyl)-pyrazol-1-yl]-piperidine-1-carboxylic acid tert-butyl ester] | 79.51%
7 | CC(C)(C)OC(=O)N1CCC(n2cc(COc3ccc(-n4cnnn4)cc3F)cn2)CC1 [Example 7, 4-[4-(2-Fluoro-4-tetrazol-1-yl-phenoxymethyl)-pyrazol-1-yl]-piperidine-1-carboxylic acid tert-butyl ester] | 78.16%
8 | CS(=O)(=O)c1ccc(OCc2cnn(C3CCN(c4ncc(C(F)(F)F)cn4)CC3)n2)c(F)c1 [Example 14, 2-{4-[4-(2-Fluoro-4-methanesulfonyl-phenoxymethyl)-[1,2,3]triazol-2-yl]-piperidin-1-yl}-5-trifluoromethyl-pyrimidine] | 74.80%
9 | Fc1cc(-n2cnnn2)ccc1OCc1cnn(C2CCN(c3ncc(C(F)(F)F)cn3)CC2)n1 [Example 15, 2-{4-[4-(2-Fluoro-4-tetrazol-1-yl-phenoxymethyl)-[1,2,3]triazol-2-yl]-piperidin-1-yl}-5-trifluoromethyl-pyrimidine] | 75.63%
10 | Fc1cc(-n2cnnn2)ccc1OCc1cnn(C2CCN(c3ncc(Cl)cn3)CC2)n1 [Example 16, 5-Chloro-2-{4-[4-(2-fluoro-4-tetrazol-1-yl-phenoxymethyl)-[1,2,3]triazol-2-yl]-piperidin-1-yl}-pyrimidine] | 70.31%
11 | CS(=O)(=O)c1ccc(OCc2nnn(C3CCN(c4ncc(Cl)cn4)CC3)n2)c(F)c1 [Example 17, 5-Chloro-2-{4-[5-(2-fluoro-4-methanesulfonyl-phenoxymethyl)-tetrazol-2-yl]-piperidin-1-yl}-pyrimidine] | 68.23%
12 | CCc1cnc(N2CCC(n3cc(COc4ccc(-n5cnnn5)cc4)cn3)CC2)nc1 [Example 18, 2-(4-(4-((4-(1H-tetrazol-1-yl)phenoxy)methyl)-1H-pyrazol-1-yl)piperidin-1-yl)-5-ethylpyrimidine] | 77.67%
13 | CC(C)(C)OC(=O)N1CCC(n2cc(COc3ccc(S(C)(=O)=O)cc3)nn2)CC1 [Example 21, 4-[4-(4-Methanesulfonyl-phenoxymethyl)[1,2,3]triazol-1-yl]-piperidine-1-carboxylic acid tert-butyl ester] | 63.66%

Other lines, results leading:

Row | % activity at 3 μM | SMILES
14 | 87.61% | Fc1cc(-n2cnnn2)ccc1OCc1cnn([C@H]2CCN(c3ncc(C(F)(F)F)cn3)C[C@@H]2F)n1 (racemic) [Example 34, 2-((trans)-3-Fluoro-4-(4-((2-fluoro-4-(1H-tetrazol-1-yl)phenoxy)methyl)-2H-1,2,3-triazol-2-yl)piperidin-1-yl)-5-(trifluoromethyl)pyrimidine]
15 | 85.32% | CCc1cnc(N2CC[C@H](n3ncc(COc4ccc(-n5cnnn5)cc4F)n3)[C@@H](F)C2)nc1 (racemic) [Example 38, 5-Ethyl-2-((trans)-3-fluoro-4-(4-((2-fluoro-4-(1H-tetrazol-1-yl)phenoxy)methyl)-2H-1,2,3-triazol-2-yl)piperidin-1-yl)pyrimidine]
16 | 64.46% | CC(C)(C)OC(=O)N1CCC(n2cnc(COc3ccc(S(C)(=O)=O)cc3F)n2)CC1 [Example 1, 4-[3-(2-Fluoro-4-methanesulfonyl-phenoxymethyl)-[1,2,4]triazol-1-yl]-piperidine-1-carboxylic acid tert-butyl ester]
17 | 75.78% | CC(C)(C)OC(=O)N1CCC(n2nnc(COc3ccc(S(C)(=O)=O)cc3F)n2)CC1 [Example 5, 4-[5-(2-Fluoro-4-methanesulfonyl-phenoxymethyl)-tetrazol-2-yl]-piperidine-1-carboxylic acid tert-butyl ester]
18 | 77.16% | CC(C)(C)OC(=O)N1CCC(n2cc(COc3ccc(-n4cnnn4)cc3)cn2)CC1 [Example 8, 4-[4-(4-Tetrazol-1-yl-phenoxymethyl)-pyrazol-1-yl]-piperidine-1-carboxylic acid tert-butyl ester]
19 | 65.75% | CCc1cnc(N2CCC(n3cnc(COc4ccc(S(C)(=O)=O)cc4F)n3)CC2)nc1 [Example 9, 5-Ethyl-2-{4-[3-(2-fluoro-4-methanesulfonyl-phenoxymethyl)-[1,2,4]triazol-1-yl]-piperidin-1-yl}-pyrimidine]
20 | 71.04% | CCc1cnc(N2CCC(n3ncc(COc4ccc(S(C)(=O)=O)cc4F)n3)CC2)nc1 [Example 10, 5-Ethyl-2-{4-[4-(2-fluoro-4-methanesulfonyl-phenoxymethyl)-[1,2,3]triazol-2-yl]-piperidin-1-yl}-pyrimidine]
21 | 61.30% | CS(=O)(=O)c1ccc(OCc2cnn(C3CCN(c4ncc(Cl)cn4)CC3)n2)c(F)c1 [Example 13, 5-Chloro-2-{4-[4-(2-fluoro-4-methanesulfonyl-phenoxymethyl)-[1,2,3]triazol-2-yl]-piperidin-1-yl}-pyrimidine]
22 | 80.10% | CCc1cnc(N2CCC(n3cc(COc4ccc(-n5cnnn5)cc4F)cn3)CC2)nc1 [Example 19, 5-Ethyl-2-(4-(4-((2-fluoro-4-(1H-tetrazol-1-yl)phenoxy)methyl)-1H-pyrazol-1-yl)piperidin-1-yl)pyrimidine]
